Measured values from ChEMBL document CHEMBL1201862, “PubChem BioAssay data set” (2004).
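Interpolation was linear, between the two tested concentrations surrounding the appropriate level; five concentrations were tested over 48 hours in 96-well plates. Here, GI50 denotes the concentration required for 50% inhibition of growth.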 Active and inactive are the calls of the source. Rule as the data show it: active = GI50 up to about 1.1 µM and inactive = higher.

Tests used:
Experiment in all cases: DTP human tumour cell line panel, 48 h
NCI-H226 = test system: NCI-H226
SK-MEL-5 = test system: SK-MEL-5
SF-539 = test system: SF-539
M14 = test system: M14
CAKI-1 = test system: CAKI-1
HCT-15 = test system: HCT-15
T47D = test system: T47D
IGROV-1 = test system: IGROV-1
PC-3 = test system: PC-3
SK-MEL-2 = test system: SK-MEL-2
SK-MEL-28 = test system: SK-MEL-28
UACC-62 = test system: UACC-62
RXF 393 = test system: RXF 393
SW-620 = test system: SW-620
MOLT-4 = test system: MOLT-4
SR = test system: SR
NCI-H522 = test system: NCI-H522
HOP-92 = test system: HOP-92
NCI-H460 = test system: NCI-H460
RPMI-8226 = test system: RPMI-8226
MCF7 = test system: MCF7
Malme-3M = test system: Malme-3M
MDA-N = test system: MDA-N
HT-29 = test system: HT-29
SNB-19 = test system: SNB-19
SF-295 = test system: SF-295
OVCAR-4 = test system: OVCAR-4
NCI/ADR-RES = test system: NCI/ADR-RES
BT-549 = test system: BT-549
786-0 = test system: 786-0
UACC-257 = test system: UACC-257
HOP-62 = test system: HOP-62
SF-268 = test system: SF-268
SNB-75 = test system: SNB-75
OVCAR-5 = test system: OVCAR-5
MDA-MB-435 = test system: MDA-MB-435
COLO 205 = test system: COLO 205
NCI-H23 = test system: NCI-H23
TK-10 = test system: TK-10
A549 = test system: A549
Hs-578T = test system: Hs-578T
KM12 = test system: KM12
SN12C = test system: SN12C
OVCAR-3 = test system: OVCAR-3
ACHN = test system: ACHN
HCT-116 = test system: HCT-116
OVCAR-8 = test system: OVCAR-8
UO-31 = test system: UO-31
HCC 2998 = test system: HCC 2998
DU-145 = test system: DU-145
SK-OV-3 = test system: SK-OV-3
MDA-MB-231 = test system: MDA-MB-231
LOX IMVI = test system: LOX IMVI
A498 = test system: A498
EKVX = test system: EKVX
U-251 = test system: U-251
HL-60 = test system: HL-60
K562 = test system: K562
CCRF-CEM = test system: CCRF-CEM

Measured: GI50

Oc1ccc(-c2nc3ccc4ccccc4c3c3c2CCCC3)c(O)c1
inactive: NCI-H226 > 63 µM | SK-MEL-5 9.68 µM | SF-539 42.3 µM | M14 15.2 µM | CAKI-1 42.5 µM | T47D 7.5 µM | IGROV-1 4.34 µM | PC-3 21.6 µM | SK-MEL-2 9.08 µM | SK-MEL-28 19.2 µM | UACC-62 19.5 µM | RXF 393 34.9 µM | SW-620 20.4 µM | MOLT-4 > 48.3 µM | SR 20.2 µM | NCI-H522 12.1 µM | HOP-92 24.7 µM | NCI-H460 19.6 µM | RPMI-8226 9.31 µM | MCF7 27.7 µM | Malme-3M 19.4 µM | MDA-N 17.2 µM | HT-29 11.9 µM | SNB-19 16.3 µM | SF-295 37.2 µM | OVCAR-4 66.8 µM | NCI/ADR-RES > 100 µM | BT-549 32.7 µM | 786-0 11.7 µM | UACC-257 10.5 µM | HOP-62 57.7 µM | SF-268 22.2 µM | SNB-75 28.7 µM | OVCAR-5 20 µM | MDA-MB-435 16.9 µM | COLO 205 11.1 µM | NCI-H23 27.9 µM | TK-10 37.1 µM | A549 23.2 µM | Hs-578T 24.2 µM | KM12 13.8 µM | SN12C 17.7 µM | OVCAR-3 24.4 µM | ACHN 28.8 µM | HCT-116 10.7 µM | OVCAR-8 13.8 µM | UO-31 29.9 µM | HCC 2998 36.5 µM | DU-145 35.3 µM | SK-OV-3 48.6 µM | MDA-MB-231 12.9 µM | LOX IMVI 32.7 µM | A498 51.1 µM | EKVX 28.8 µM | U-251 4.1 µM | HL-60 2.55 µM | K562 > 100 µM
26.5 µM: HCT-15

COC(=O)c1c(O)ccc2c1C1(Cc3ccccc3C1=O)C(O)O2 (stereo not given)
13.3 µM: HCT-15
inactive: NCI-H226 9.79 µM | SK-MEL-5 34.3 µM | SF-539 20.1 µM | M14 17.3 µM | CAKI-1 16.1 µM | T47D 18.2 µM | IGROV-1 1.94 µM | PC-3 17.2 µM | SK-MEL-2 28.3 µM | SK-MEL-28 36.9 µM | RXF 393 51.5 µM | SW-620 25.1 µM | MOLT-4 5.04 µM | SR 4.49 µM | NCI-H522 3.86 µM | HOP-92 16.6 µM | NCI-H460 8.85 µM | RPMI-8226 2.88 µM | MCF7 12.6 µM | Malme-3M 21.7 µM | MDA-N 13.7 µM | HT-29 43.2 µM | SNB-19 43.4 µM | SF-295 42.3 µM | OVCAR-4 16.2 µM | NCI/ADR-RES 27.8 µM | BT-549 5.09 µM | 786-0 14.1 µM | UACC-257 > 100 µM | HOP-62 13.8 µM | SF-268 15.6 µM | OVCAR-5 17.5 µM | MDA-MB-435 13.4 µM | COLO 205 35.6 µM | NCI-H23 33.2 µM | TK-10 24.3 µM | A549 20.6 µM | Hs-578T 23.3 µM | KM12 25.4 µM | SN12C 16.4 µM | OVCAR-3 18.6 µM | ACHN 14.9 µM | HCT-116 15.6 µM | OVCAR-8 14.5 µM | UO-31 10.1 µM | HCC 2998 31.2 µM | DU-145 24.4 µM | SK-OV-3 20.2 µM | MDA-MB-231 17.3 µM | LOX IMVI 19.5 µM | A498 > 100 µM | EKVX 23.1 µM | U-251 20.5 µM | CCRF-CEM 2.46 µM | HL-60 4.02 µM | K562 12.8 µM
